Series [1] concerns colon cancer (CT26) tumors. In words: Oxaliplatin in combination with micron-sized imiquimod suspension, two-sided tumor model. Format: in vivo, mice. To be noted: Day 15 after treatment; 30 μL intratumoral; oxaliplatin 4 mg/mL, imiquimod 6 mg/mL. On the procedure:
Mice were inoculated with different amounts of colon cancer (CT26) tumors on both sides of the back in mice (the inoculated amount on the left side was ⅕ of that on the right side) to establish a subcutaneous two-sided tumor model, wherein the tumor on the right side was deemed an in-situ tumor, and that on the left right was deemed a distal tumor. Once the in-situ tumors reached a size of about 100 mm^3, the mice were randomly divided into 4 groups, which were treated respectively.
On Day 1 of the treatment, the in-situ tumor was administered by intratumoral injection, wherein the concentration of oxaliplatin was 4 mg/mL, and the concentration of imiquimod was 6 mg/mL. After administration, the tumor volume in mice was recorded to plotted a growth curve of ice.

The test system of a further series is mouse colon CT26 tumor. The experiment in a line: Oxaliplatin chemotherapy combined with imiquimod micro-formulation, in-situ and distal tumor growth. Format: in vivo, mice. To be noted: intratumoral injection, chemotherapeutic alone. On the procedure: The length and width of the tumor in mice were regularly measured, and the volume of tumor was calculated as follows: (length×(width) 2)/2.

The nature of series [2]: Platinum in blood and organs (ICP-MS) after intratumoral oxaliplatin with or without imiquimod suspension. The following applies: platinum in blood after intratumoral injection. From the text:
Mice were inoculated with colon cancer (CT26) tumor cells on the back of the tumor in mice to establish a subcutaneous tumor model in mice.

Series [3] can be described thus: in vivo. The following applies: mouse, whole blood.
Excerpt: Mice were inoculated with CT26 tumor cells on their back to establish a CT26 subcutaneous tumor model of mice. Mice with the same tumor size were equally divided to 3 groups with 3 mice in each group.
A short description of series [4]: in vivo. The following applies: mouse, whole blood, 6 mg/kg.
Description: Water-insoluble R837 powder was prepared into microparticles with a particle size of 1-3 microns, which were intratumorally injected and then monitored for the pharmacokinetics and intratumoral retention time.
Experimental method: Mice were transplanted with mouse colon cancer (CT26) tumor on their backs, and randomly divided to 3 groups with 3 mice in each group for the pharmacokinetic study.
Group 1: The mice were intratumorally injected with micromolecule imiquimod hydrochloride with an injection dose of 6 mg/kg.
Group 2: The mice were intratumorally injected with imiquimod/PLGA nano-particles (with an average particle size of about 100 nm) with an injection dose of 6 mg/kg.
Group 3: The mice were intratumorally injected with imiquimod microparticles (the present formulation) with an injection dose of 6 mg/kg.
The conditions of series [5]: 72 h after intratumoral injection, 6 mg/kg, CT26 mice.
Description: Experimental method: Mice were transplanted with mouse colon cancer (CT26) tumor on their backs, and randomly divided to 3 groups with 3 mice in each group for the study of drug distribution behavior. • Group 1: The mice were intratumorally injected with the micromolecule imiquimod hydrochloride with an injection dose of 6 mg/kg; • Group 2: The mice were intratumorally injected with imiquimod nano-particles (with average particle size of about 100 nm) encapsulated with polylactic-glycolic acid copolymer (PLGA) with an injection dose of 6 mg/kg; and • Group 3: The mice were intratumorally injected with imiquimod microparticles (the present formulation) with an injection dose of 6 mg/kg.
Another series has as its system tumor cells. In words: Micron-sized imiquimod suspension in combination with ethanol ablation, subcutaneous tumor model. Format: in vivo, mice. To be noted: imiquimod suspension 12 mg/mL peritumoral; absolute ethanol 30 μL intratumoral. From the text: First, a subcutaneous tumor model in mice was established. In particular, mice were inoculated with tumor cells on their back. Once the tumors grew to a volume of 100 mm^3, the mice were randomly divided into 5 groups with 5 mice in each group.
The mice were monitored for the changes in tumor volumes, and the curves of tumor growth were plotted.

Structures can show the parent of a compound that is named as a salt.

Take `O=C1[O][Pt]2([NH][C@@H]3CCCC[C@H]3[NH]2)[O]C1=O` [OXA, oxaliplatin]: in series [1], the “Tumor Inhibition Rate, Distant tumor” value is recorded as 41.87% and the “Tumor Inhibition Rate, In-situ tumor” value is listed as 69.56%. Besides, in the series on mouse colon CT26 tumor, the “Growth of distal tumors (FIG. 11)” value is “does not produce significant inhibitory effect” and the “Growth of in-situ tumors (FIG. 10)” value is “can inhibit the growth of in-situ tumors”. Moreover, in series [2], the “Tmax (H)” value was found to be 3 H.

`CC(C)Cn1cnc2c(N)nc3ccccc3c21` [Micromolecule imiquimod hydrochloride, imiquimod hydrochloride]: in “in vivo [3]”, the AUC (as a rule, concentration integrated over time) is 140 ng·h/mL; the Cmax (commonly the peak of the concentration-time curve) stood at 17.4 ng/mL; the Tmax (usually the time at which the peak concentration occurs) turned out to be 0.5 h; the half-life (in general, the time needed for the level to fall by half in the phase considered) was 7.7 h. Further, where the note is “at 48 h and 72 h after intratumoral injection 6 mg/kg”, the “Blood concentration of drug” value was “below the limit of detection”. Further, under “intratumoral injection 6 mg/kg, CT26 mice, average of 3”, the “Average Retention Time” value was 11 h. The half-life in “in vivo [4]” is 12 h. Further, the “Retention of imiquimod in tumor and main organs (FIG. 3)” value in series [5] was “extremely low overall retention”.

On to `CCO` [absolute ethanol, ethanol], for which the “Tumor growth / tumor volumes (FIG. 14)” value in the series on tumor cells was “not highly different from those of the control group”.

For the origin of these results see patent US20240050560A1, “SELF-SUSTAINED RELEASE IMMUNE ADJUVANT SUSPENSION, PREPARATION METHOD THEREFOR, AND USE THEREOF” (priority 2020, published 2024).
